Some test systems named below: A549; CAKI-1; HCC 2998; KM12; MCF7; MDA-N; NCI-H226; OVCAR-3; SF-539; SK-MEL-2; SK-MEL-5; SK-OV-3; SR; T47D; TK-10; U-251; UACC-62; NCI-H23; Malme-3M.
What all share (test): NCI tumour cell line growth inhibition, 48 h

Molecules are shown by their SMILES.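 In this assay, cells in 96-well plates receive the compound at five concentrations for 48 hours. Endpoints are linearly interpolated between the surrounding concentrations. Abbreviation: GI50, concentration required for 50% inhibition of growth.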 The source made the active and inactive calls. No stated cut-off is given here; in the data, active = GI50 up to about 1.1 µM and inactive = higher.

`CC(C)(CNC(=O)/C(Cl)=C(/Cl)C(=O)O)CNC(=O)/C(Cl)=C(/Cl)C(=O)O`: the GI50 is > 100 µM (inactive) in the test with A549; > 100 µM (inactive) with CAKI-1; > 100 µM (inactive) in the test on HCC 2998; > 100 µM (inactive) in the test with KM12; 59.6 µM (inactive) in the test on MCF7; > 100 µM (inactive) with MDA-N. In addition, the GI50 was > 100 µM (inactive) with NCI-H226; > 100 µM (inactive) with OVCAR-3; 67.6 µM (inactive) with SF-539; > 100 µM (inactive) in the test with SK-MEL-2; > 100 µM (inactive) in the test with SK-MEL-5; > 100 µM (inactive) in the test with SK-OV-3. For the same molecule, the GI50 with SR is 44.6 µM (inactive); with T47D, 92.7 µM (inactive); in the test on TK-10, 64.3 µM (inactive); with U-251 it was > 100 µM (inactive); in the test with UACC-62, > 100 µM (inactive).

For `O=c1[nH]c(=O)n2n1C1C=CC2CC1`, the GI50 with A549, with CAKI-1, in the test with KM12, in the test on MCF7, in the test on MDA-N and with NCI-H226 was > 100 µM (inactive) in each case. The GI50 in the test on NCI-H23, in the test with OVCAR-3, with SF-539, in the test with SK-MEL-2, in the test with SK-MEL-5 and with SK-OV-3 was > 100 µM (inactive) throughout. Also, the GI50 with SR, in the test with T47D, with TK-10, in the test on U-251 and in the test on UACC-62 was > 100 µM (inactive) in each case.

For the molecule `CC(C)C(=O)CP(=O)(O)O`, the GI50 in the test on A549, with CAKI-1, with KM12, in the test on MCF7, in the test with MDA-N and in the test on Malme-3M was > 100 µM (inactive) each time. For the same molecule, the GI50 in the test on NCI-H226, in the test on NCI-H23, with OVCAR-3, in the test with SF-539, in the test with SK-MEL-2 and in the test with SK-MEL-5 was > 100 µM (inactive) in each case. Further, the GI50 in the test on SK-OV-3, in the test on SR, in the test on T47D, in the test on TK-10, in the test on U-251 and in the test with UACC-62 was > 100 µM (inactive) each time.

Regarding `CCC(c1ccc(N(C)C)cc1)C1NC(=S)NC1=O` (configuration not stated), the GI50 with A549 is > 100 µM (inactive); in the test with CAKI-1, > 100 µM (inactive); in the test on HCC 2998, > 100 µM (inactive); in the test on KM12, 62.7 µM (inactive); with MCF7, > 100 µM (inactive); in the test with MDA-N, 59.7 µM (inactive). For the same molecule, the GI50 is > 100 µM (inactive) in the test with Malme-3M; 87.3 µM (inactive) with NCI-H226; > 100 µM (inactive) in the test with NCI-H23; > 100 µM (inactive) in the test on SF-539; 37.8 µM (inactive) in the test with SK-MEL-5; > 100 µM (inactive) in the test on SK-OV-3. In addition, the GI50 is 8.11 µM (inactive) with SR, 78.3 µM (inactive) in the test on T47D, 85.5 µM (inactive) in the test with TK-10 and 86.7 µM (inactive) in the test with U-251.

On to `COc1ccc(/N=C2\S/C(=N\C(=N\c3ccccc3)SCc3ccccc3)N(c3ccccc3)\C2=N/c2ccc(OC)cc2)cc1`, for which the GI50 with A549, in the test on HCC 2998, in the test on KM12, with MCF7, in the test with MDA-N and in the test on Malme-3M was > 100 µM (inactive) throughout. Moreover, the GI50 in the test with NCI-H226, with NCI-H23, in the test with SK-MEL-2, in the test with SK-MEL-5, in the test with SR and with T47D was > 100 µM (inactive) each time. Besides, the GI50 with TK-10 and in the test with UACC-62 was > 100 µM (inactive) throughout.

As to `CC(=O)O[C@H]1C(=O)[C@@]2(C)[C@H]([C@H](OC(=O)c3ccccc3)[C@]3(O)C[C@H](OC(=O)[C@H](O)[C@@H](NC(=O)c4ccoc4)c4ccccc4)C(C)=C1C3(C)C)[C@]1(OC(C)=O)CO[C@@H]1C[C@@H]2O`, the GI50 in the test on A549 was 0.0386 µM (active); in the test on HCC 2998, 0.0216 µM (active); in the test on KM12, < 0.01 µM (active); in the test on MCF7 it was 0.0265 µM (active); in the test with MDA-N, 0.00361 µM (active); with NCI-H226 it was 0.0386 µM (active). Moreover, the GI50 in the test with NCI-H23 is 0.0261 µM (active); with OVCAR-3, < 0.01 µM (active); with SF-539 it was 0.0292 µM (active); in the test on SK-MEL-2, 0.0225 µM (active); with SK-MEL-5, 0.028 µM (active); in the test on SK-OV-3 it was 0.358 µM (active). Besides, the GI50 with SR was 0.0355 µM (active); with T47D, 0.0307 µM (active); in the test on TK-10 it was 0.0861 µM (active); in the test with U-251 it was 0.00791 µM (active); with UACC-62 it was 0.0776 µM (active).

With `C=CC(C)(C)/C(=C\CO[Si](C(C)C)(C(C)C)C(C)C)C(=O)N(C)c1ccccc1I`, the GI50 is 10.7 µM (inactive) in the test with A549; 19 µM (inactive) in the test on CAKI-1; 13.2 µM (inactive) in the test on HCC 2998; 27.5 µM (inactive) in the test on KM12; 11.5 µM (inactive) in the test on MCF7; 16.4 µM (inactive) with MDA-N. For the same molecule, the GI50 in the test with NCI-H23 was 11 µM (inactive); in the test with OVCAR-3 it was 11.6 µM (inactive); in the test on SF-539, 18 µM (inactive); in the test on SK-MEL-5, 17.7 µM (inactive); with SK-OV-3, 16.3 µM (inactive); in the test on SR it was 6.81 µM (inactive). For the same molecule, the GI50 with T47D was 9.98 µM (inactive); in the test on TK-10, 13.4 µM (inactive); in the test with U-251, 11.5 µM (inactive); with UACC-62, 13.1 µM (inactive).

With `CCC12CCCN(Cc3ccccc3)C1c1c([nH]c3ccccc13)C(C(=O)OC)C2` (configuration not stated), the GI50 in the test on A549, in the test on CAKI-1, in the test with HCC 2998, in the test on KM12, in the test on MCF7 and in the test with MDA-N was > 10 µM (inactive) in each case. The GI50 in the test on Malme-3M was > 10 µM (inactive); in the test on NCI-H23, 8.38 µM (inactive); with OVCAR-3, > 10 µM (inactive); in the test on SF-539 it was > 10 µM (inactive); with SK-MEL-5, > 10 µM (inactive); with SK-OV-3 it was > 10 µM (inactive). The GI50 is 7.64 µM (inactive) in the test with SR; 5.75 µM (inactive) in the test with T47D; > 10 µM (inactive) with TK-10; > 10 µM (inactive) with U-251; > 10 µM (inactive) in the test with UACC-62.
